Test results as given in ChEMBL document CHEMBL3286183, “Minor diterpene glycosides from the leaves of Stevia rebaudiana” (J Nat Prod, 2014).
The source made the active and inactive calls.

Assays:
Format in all cases: functional, organism-based
Pseudomonas aeruginosa = assay: Antimicrobial activity against Pseudomonas aeruginosa ATCC 27853
[1] = tested on: Mycobacterium intracellulare; assay: Antimicrobial activity against Mycobacterium intracellulare ATCC 23068
Cryptococcus neoformans = assay: Antimicrobial activity against Cryptococcus neoformans ATCC 90113
Candida albicans = assay: Antimicrobial activity against Candida albicans ATCC 90028
Aspergillus fumigatus = assay: Antimicrobial activity against Aspergillus fumigatus ATCC 90906
Staphylococcus aureus = assay: Antimicrobial activity against methicillin-resistant Staphylococcus aureus ATCC 43300
Escherichia coli = assay: Antimicrobial activity against Escherichia coli ATCC 35218
Plasmodium falciparum [2] = assay: Antimalarial activity against chloroquine-sensitive Plasmodium falciparum D6
Plasmodium falciparum [3] = assay: Antimalarial activity against chloroquine-resistant Plasmodium falciparum W2

Measured: Activity

C=C1C[C@@]23CC[C@H]4[C@@](C)(CCC[C@@]4(C)C(=O)O[C@@H]4O[C@H](CO)[C@@H](O)[C@H](O)[C@H]4O)[C@@H]2CC[C@]1(O[C@@H]1O[C@H](C)[C@@H](O)[C@H](O)[C@@H]1O[C@@H]1O[C@H](CO)[C@@H](O)[C@H](O[C@@H]2O[C@H](CO)[C@@H](O)[C@H](O)[C@H]2O)[C@H]1O)C3
inactive: Pseudomonas aeruginosa | [1] | Cryptococcus neoformans | Candida albicans | Aspergillus fumigatus | Staphylococcus aureus | Escherichia coli

C=C1C[C@@]23CC[C@H]4[C@@](C)(CCC[C@@]4(C)C(=O)O)[C@@H]2CC[C@]1(O[C@@H]1O[C@@H](CO)[C@@H](O[C@@H]2O[C@@H](CO)[C@@H](O)[C@H](O)[C@@H]2O)[C@H](O)[C@@H]1O[C@@H]1O[C@@H](CO)[C@@H](O)[C@H](O)[C@@H]1O)C3
inactive: Pseudomonas aeruginosa | [1] | Cryptococcus neoformans | Candida albicans | Aspergillus fumigatus | Staphylococcus aureus | Escherichia coli

C=C1C[C@@]23CC[C@H]4[C@@](C)(CCC[C@@]4(C)C(=O)O[C@@H]4O[C@H](CO)[C@@H](O)[C@H](O)[C@H]4O)[C@@H]2CC[C@]1(O[C@@H]1O[C@H](CO)[C@@H](O)[C@H](O)[C@H]1O[C@@H]1O[C@H](CO)[C@@H](O)[C@H](O[C@@H]2O[C@H](CO)[C@@H](O)[C@H](O)[C@H]2O)[C@H]1O)C3
inactive: Pseudomonas aeruginosa | [1] | Cryptococcus neoformans | Candida albicans | Aspergillus fumigatus | Staphylococcus aureus | Escherichia coli

C=C1C[C@@]23CC[C@H]4[C@@](C)(CCC[C@@]4(C)C(=O)O[C@@H]4O[C@H](CO)[C@@H](O)[C@H](O)[C@H]4O)[C@@H]2CC[C@]1(O[C@@H]1O[C@H](CO)[C@@H](O)[C@H](O[C@@H]2OC[C@@H](O)[C@H](O)[C@H]2O)[C@H]1O[C@@H]1O[C@H](CO)[C@@H](O)[C@H](O)[C@H]1O)C3
inactive: Pseudomonas aeruginosa | [1] | Cryptococcus neoformans | Candida albicans | Aspergillus fumigatus | Staphylococcus aureus | Escherichia coli

C=C1C[C@@]23CC[C@H]4[C@@](C)(CCC[C@@]4(C)C(=O)O[C@@H]4O[C@H](CO)[C@@H](O)[C@H](O)[C@H]4O)[C@@H]2CC[C@]1(O[C@@H]1O[C@H](C)[C@@H](O)[C@H](O)[C@@H]1O[C@@H]1O[C@H](CO)[C@@H](O)[C@H](O)[C@H]1O)C3
inactive: Pseudomonas aeruginosa | [1] | Cryptococcus neoformans | Candida albicans | Aspergillus fumigatus | Staphylococcus aureus | Escherichia coli

C=C1C[C@@]23CC[C@H]4[C@@](C)(CCC[C@@]4(C)C(=O)O[C@@H]4O[C@H](CO)[C@@H](O)[C@H](O)[C@H]4O[C@@H]4O[C@H](CO)[C@@H](O)[C@H](O)[C@H]4O)[C@@H]2CC[C@]1(O[C@@H]1O[C@H](CO)[C@@H](O)[C@H](O[C@@H]2O[C@H](CO)[C@@H](O)[C@H](O)[C@H]2O)[C@H]1O[C@@H]1O[C@H](CO)[C@@H](O)[C@H](O)[C@H]1O)C3
inactive: Pseudomonas aeruginosa | [1] | Cryptococcus neoformans | Candida albicans | Aspergillus fumigatus | Staphylococcus aureus | Escherichia coli

C=C1C[C@@]23CC[C@H]4[C@@](C)(CCC[C@@]4(C)C(=O)O[C@@H]4O[C@H](CO)[C@@H](O)[C@H](O)[C@H]4O[C@@H]4O[C@H](CO)[C@@H](O)[C@H](O)[C@H]4O)[C@@H]2CC[C@]1(O[C@@H]1O[C@H](CO)[C@@H](O)[C@H](O)[C@H]1O)C3
inactive: Pseudomonas aeruginosa | [1] | Cryptococcus neoformans | Candida albicans | Aspergillus fumigatus | Plasmodium falciparum [2] | Staphylococcus aureus | Escherichia coli | Plasmodium falciparum [3]

C=C1C[C@@]23CC[C@H]4[C@@](C)(CCC[C@@]4(C)C(=O)O[C@@H]4O[C@H](CO)[C@@H](O)[C@H](O)[C@H]4O)[C@@H]2CC[C@]1(O[C@@H]1O[C@H](CO)[C@@H](O)[C@H](O)[C@H]1O[C@@H]1O[C@H](CO)[C@@H](O)[C@H](O)[C@H]1O)C3
inactive: Pseudomonas aeruginosa | [1] | Cryptococcus neoformans | Candida albicans | Aspergillus fumigatus | Plasmodium falciparum [2] | Staphylococcus aureus | Escherichia coli | Plasmodium falciparum [3]
